Results: ChEMBL document CHEMBL1136667, “Inhibitors of Abeta production: solid-phase synthesis and SAR of alpha-hydroxycarbonyl derivatives” (Bioorg Med Chem Lett, 2003)

target: Gamma-secretase; assay: Inhibition of amyloid beta protein production in transfected H4 (neuroglioma) cells expressing […] constructs.; format: functional, cell-based, Homo sapiens

Structure (SMILES) | IC50 [nM]
CC(C)CCC(=O)N[C@@H](CC(C)C)C(=O)N[C@@H](CC1CCCCC1)[C@@H](O)C(=O)c1ccccc1 | 4500
CCOC(=O)[C@H](O)[C@H](CC1CCCCC1)NC(=O)[C@@H](NC(=O)/C=C/c1ccccc1)C(C)C | 5000
CCOC(=O)[C@H](O)[C@H](CC1CCCCC1)NC(=O)[C@@H](NC(=O)Cc1ccccc1)C(C)C | 3400
CCOC(=O)[C@H](O)[C@H](CC1CCCCC1)NC(=O)[C@H](NC(=O)Cc1ccccc1)C(C)C | > 25000
CC(=O)[C@H](O)[C@H](CC1CCCCC1)NC(=O)[C@H](CC(C)C)NC(=O)CCC(C)C | 620
CCOC(=O)[C@H](O)[C@H](CC1CCCCC1)NC(=O)[C@@H](NC(=O)Cc1ccccc1F)C(C)C | 17000
CCOC(=O)[C@H](O)[C@H](CC1CCCCC1)NC(=O)[C@@H](NC(=O)C(=O)c1ccccc1)C(C)C | 3300
CCCC(=O)[C@H](O)[C@H](CC1CCCCC1)NC(=O)[C@H](CC(C)C)NC(=O)CCC(C)C | 580
CCOC(=O)[C@H](O)[C@H](CC1CCCCC1)NC(=O)[C@@H](NC(=O)c1ccccc1)C(C)C | > 25000
CCOC(=O)[C@H](O)[C@H](CC1CCCCC1)NC(=O)[C@H](CC(C)C)NC(=O)CCC(C)C | 1500
CC(C)CCC(=O)N[C@@H](CC(C)C)C(=O)N[C@@H](CC1CCCCC1)[C@@H](O)C(=O)C(C)C | 550
CCOC(=O)[C@H](O)[C@H](CC1CCCCC1)NC(=O)[C@@H](NC(=O)C1(c2ccccc2)CC1)C(C)C | > 25000

Second part, the compound after the results:

IC50 [nM] | Structure (SMILES)
1600 | CCOC(=O)[C@H](O)[C@H](CC1CCCCC1)NC(=O)[C@H](CC(C)C)NC(=O)Cc1ccccc1
180 | CC(=O)[C@H](O)[C@H](CC1CCCCC1)NC(=O)[C@H](CC(C)C)NC(=O)Cc1cc(F)cc(F)c1
15000 | CCOC(=O)[C@H](O)[C@H](CC1CCCCC1)NC(=O)[C@H](Cc1ccccc1)NC(=O)Cc1ccccc1
160 | CC(C)C[C@H](NC(=O)Cc1cc(F)cc(F)c1)C(=O)N[C@@H](CC1CCCCC1)[C@@H](O)C(=O)Cc1ccccc1
450 | CCOC(=O)[C@H](O)[C@H](CC1CCCCC1)NC(=O)[C@H](CC(C)C)NC(=O)Cc1cc(F)cc(F)c1
300 | CC(C)CCC(=O)N[C@@H](CC(C)C)C(=O)N[C@@H](CC1CCCCC1)[C@@H](O)C(=O)Cc1ccccc1
900 | CC(=O)[C@H](O)[C@H](CC1CCCCC1)NC(=O)[C@H](CC(C)C)NC(=O)Cc1ccccc1
400 | CC(C)C[C@H](NC(=O)Cc1ccccc1)C(=O)N[C@@H](CC1CCCCC1)[C@@H](O)C(=O)Cc1ccccc1
400 | CC(C)C[C@H](NC(=O)Cc1cccc(F)c1)C(=O)N[C@@H](CC1CCCCC1)[C@@H](O)C(=O)Cc1ccccc1
1800 | CCOC(=O)[C@H](O)[C@H](CC1CCCCC1)NC(=O)[C@H](CC(C)C)NC(=O)Cc1ccc(F)cc1
900 | CC(C)C[C@H](NC(=O)Cc1ccccc1)C(=O)N[C@@H](CC1CCCCC1)[C@@H](O)C(=O)c1ccccc1
600 | CCCC(=O)[C@H](O)[C@H](CC1CCCCC1)NC(=O)[C@H](CC(C)C)NC(=O)Cc1ccccc1
920 | CCOC(=O)[C@H](O)[C@H](CC1CCCCC1)NC(=O)[C@H](CC(C)C)NC(=O)Cc1cccc(F)c1
15000 | CC(C)C[C@H](NC(=O)Cc1ccccc1)C(=O)N[C@@H](CC1CCCCC1)[C@@H](O)C(=O)O
